In paper PMC4768790 (The New phytologist, 2015):

Experiments:
HopZ1a = HopZ1a (Pseudomonas syringae, UniProt Q6VE93); test: in vitro autoacetylation assay, […] autoradiography; assay type: biochemical; conditions: 100 nM IP6, [14C]-acetyl-CoA, 50 mM HEPES pH 8.0, 30°C, 1 h; activator
PopP2 = PopP2 (Ralstonia pseudosolanacearum, UniProt Q8Y125); conditions: labelled compound; 50 mM HEPES pH 8.0, 30°C, 1 h
Chain of PopP2 (Q8Y125 1-488): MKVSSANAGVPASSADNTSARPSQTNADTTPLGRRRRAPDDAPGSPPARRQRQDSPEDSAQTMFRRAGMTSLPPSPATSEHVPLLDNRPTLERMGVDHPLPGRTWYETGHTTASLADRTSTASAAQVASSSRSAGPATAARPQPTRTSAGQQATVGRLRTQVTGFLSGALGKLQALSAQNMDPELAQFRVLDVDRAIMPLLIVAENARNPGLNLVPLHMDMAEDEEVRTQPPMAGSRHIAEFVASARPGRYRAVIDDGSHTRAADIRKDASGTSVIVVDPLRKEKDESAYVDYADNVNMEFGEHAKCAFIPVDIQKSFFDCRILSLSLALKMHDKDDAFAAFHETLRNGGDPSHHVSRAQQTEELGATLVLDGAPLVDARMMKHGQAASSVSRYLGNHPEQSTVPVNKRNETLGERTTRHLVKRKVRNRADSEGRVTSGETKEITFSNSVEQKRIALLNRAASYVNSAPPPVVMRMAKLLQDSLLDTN

Chain of HopZ1a (Q6VE93 whole entry): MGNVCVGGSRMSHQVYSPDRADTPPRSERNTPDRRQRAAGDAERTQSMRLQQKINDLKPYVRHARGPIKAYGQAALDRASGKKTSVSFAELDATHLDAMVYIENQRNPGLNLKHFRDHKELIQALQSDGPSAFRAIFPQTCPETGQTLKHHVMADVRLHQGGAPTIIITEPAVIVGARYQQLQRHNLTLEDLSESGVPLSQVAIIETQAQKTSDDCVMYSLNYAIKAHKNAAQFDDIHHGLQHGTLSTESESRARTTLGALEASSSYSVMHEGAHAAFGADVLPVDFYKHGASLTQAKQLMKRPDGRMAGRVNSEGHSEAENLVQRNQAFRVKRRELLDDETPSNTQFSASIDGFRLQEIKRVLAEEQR

Row | SMILES | enhancement of autoacetylation by IP6 (HopZ1a) | in vitro autoacetylation assay, 14C autoradiography (PopP2)
1 | O=P(O)(O)O[C@H]1[C@H](OP(=O)(O)O)[C@@H](OP(=O)(O)O)[C@H](OP(=O)(O)O)[C@@H](OP(=O)(O)O)[C@H]1OP(=O)(O)O [IP6] | c. 40 | –
2 | CC(=O)SCCNC(=O)CCNC(=O)[C@H](O)C(C)(C)COP(=O)(O)OP(=O)(O)OC[C@H]1O[C@@H](n2cnc3c(N)ncnc32)[C@H](O)[C@@H]1OP(=O)(O)O [acetyl-CoA] | – | the mutant PopP2(S447AS449A) is no longer autoacetylated
